Data as given in patent US6903100B2, “USE OF REGULARLY SCHEDULED HIGH DOSE INTRAVENOUS METHOTREXATE THERAPY, WITH INTERIM ADMINISTRATION OF IMMUNOMODULATORY AGENTS, TO TREAT MULTIPLE SCLEROSIS AND OTHER DISEASES OF THE CENTRAL NERVOUS SYSTEM” (MidAmerica Neuroscience Research Foundation, priority 2001, dated 2005).
“And” between values parts separate entries of the source, which are not always exact repeats. Identical values can stand only once.

Legend:
[1] = cited from earlier work; for crossing of the blood brain barrier (BBB) into the CNS: in vivo
relapsing progressive MS = test: MSFC clinical outcome (9-HPT, 25-ft walk, PASAT) in patients treated with bimonthly high dose IV methotrexate; assay type: in vivo; design: 9-HPT change / 25-ft walk change: unit not given here
Protocol: Ten patients of relapsing progressive MS were treated with bimonthly high dose intravenous methotrexate with leucovorin rescue, combined with interim treatment with low dose immunomodulatory agents.
(§1) Methotrexate treatments were given every 2 months for up to 6 treatments. Methotrexate was administered by IV at a dosage of 1 g/m^2 for the first three treatments. […] The patients were then switched to doses of 2 g/m^2 of methotrexate for three subsequent treatments. Methotrexate was given after hydration and alkalization, with urine pH 7.0 or greater. The infusion was followed by continued hydration for several hours.
(§2) Each methotrexate treatment was followed by intravenous leucovorin rescue with 50 mg leucovorin eight hours after the start of the methotrexate infusion. Oral leucovorin (25 mg) was administered every 6 hours for a total of 12 doses after intravenous leucovorin rescue, and the serum methotrexate level measured. If necessary oral leucovorin was continued until the serum level reached 0.05 μM.
At the time of study entry, all patients were being treated, with interferon (AVONEX® or BETA-SERON®), glatiramer acetate (COPAXONE®), or oral methotrexate. These medications were continued between treatments.
The clinical outcome was determined by MSFC scores at baseline and at two months follow up visits after each treatment. The MSFC is a clinical outcome measure, which measures three clinical functions involving hand dexterity, walking, and cognition. Two tailed paired t-test was used to compare the results of MSFC.

[2] = Methotrexate in cerebrospinal fluid (CSF) after infusion; assay type: in vivo; conditions: five CSF samples, several patients and time points after infusion of 2 g/m^2
Protocol: Five samples of cerebrospinal fluid (CSF) were analyzed for methotrexate, representing several patients and several time points after methotrexate infusion of 2 g/m^2.

MS; CNS lymphomas = conditions: cited from earlier work
[3] = Safety of high dose IV methotrexate with leucovorin rescue in MS patients; assay type: in vivo
Protocol: as §1, §2

[4] = after one year of treatment, ten patients
[5] = all patients together, two tailed paired t-test
[6] = all patients together, two tailed paired t-test, p<0.05
[7] = individual patient, change from baseline after one year, IV 1 g/m^2 x3 then 2 g/m^2 x3, every 2 months, leucovorin rescue, interim agent

## CN(Cc1cnc2nc(N)nc(N)c2n1)c1ccc(C(=O)N[C@@H](CCC(=O)O)C(=O)O)cc1 [Methotrexate, methotrexate]
[1]; administered orally
  serum level relative to crossing the BBB: not sufficient to cross the BBB in cytotoxic amounts
Relapsing progressive MS; after 3 treatments at 1 g/m^2
  MSFC scores of some of the patients: improved significantly
Relapsing progressive MS; [4]
  maximum increase of overall MSFC: +1.28
  minimum increase of overall MSFC: +0.08
Relapsing progressive MS; after treatment
  clinical assessment with MSFC scores: significant improvement
Relapsing progressive MS; [5]
  improvement in the 25-ft walk test: not significant
  improvement in the PASAT test: not significant
Relapsing progressive MS; [6]
  mean nine-hole peg score after treatment: significant improvement
  mean overall MSFC score after treatment: significant improvement
Relapsing progressive MS; [7]
  9-HPT change: +0.45 and +0.86 and −0.31 and +0.20 and +0.83 and +0.30 and −0.10 and +0.80 and +1.07 and +0.70
  25-ft walk change: +0.04 and 0.00 and −0.01 (2×) and +0.08 and +0.14 and −0.04 and −0.07 and −0.22 and +0.53
  MSFC change: +0.38 and +0.31 and +0.25 and +0.18 and +0.13 and +0.09 and +0.08 (2×) and +1.28 and +0.56
  PASAT change: +0.66 and +0.08 and +1.08 and +0.25 and −0.58 and 0.00 and +0.41 and −0.33 and +2.24 and +0.99
Relapsing progressive MS; of 10
  PASAT (cognitive function): patients improved: 6 patients
  PASAT (cognitive function): patients turned worse: 2
  PASAT (cognitive function): patients unchanged: 2
  nine-hole peg test (arm function): patients improved: 8 patients
  nine-hole peg test (arm function): patients unchanged: 1
  nine-hole peg test (arm function): patients with minor worsening: 1 patient
  timed 25-ft walk (leg function): patients unchanged: 7
  timed 25-ft walk (leg function): patients with improvement: 2 patients
  timed 25-ft walk (leg function): patients with slight worsening: 1
Relapsing progressive MS; of 10, after one year, change >+0.1
  patients improved on MSFC: seven
Relapsing progressive MS; of 10, after one year, change less than 0.1
  patients unchanged on MSFC: three
Relapsing progressive MS; periodic high dose with leucovorin rescue and interim treatments
  deterioration of symptoms of progressive MS: halted the deterioration of the symptoms in every patient treated
[2]
  crossing of the BBB (methotrexate in CSF): cross the BBB in cytotoxic amounts
MS; CNS lymphomas; in vivo, iv
  toxicity of high dose in CNS lymphoma trials: low toxicity
  toxicity of high dose sporadically administered: no significant toxicity
MS; CNS lymphomas; in vivo, po
  toxicity of low-dose oral treatment in progressive MS: minimal toxicity
MS; CNS lymphomas; oral treatments
  upper extremity strength in MS patients: mild improvement
[3]; IV 1 g/m^2, first three treatments
  tolerability: well tolerated
[3]; after one treatment, 2-week follow up creatinine clearance within acceptable limits
  renal toxicity: one patient experienced Grade I renal toxicity
[3]; ten patients
  alopecia: No alopecia was noted
[3]; ten patients, up to 6 treatments
  hematological toxicity: No hematological toxicity was observed
[3]; ten patients, easily treated with Zofran
  nausea: Five patients experienced some nausea

## O=P1(N(CCCl)CCCl)NCCCO1 (centres unmarked) [cyclophosphamide]
[1]
  crossing of the blood brain barrier (BBB) into the CNS: do not cross the blood brain barrier
MS; CNS lymphomas; in vivo
  efficacy against the progression of MS: some efficacy

## Nc1nc2c(c(=O)[nH]1)N(C=O)C(CNc1ccc(C(=O)N[C@@H](CCC(=O)O)C(=O)O)cc1)CN2 (some centres unmarked) [leucovorin]
[1]
  crossing of the blood brain barrier (BBB) into the CNS: does not penetrate the BBB

## O=C1c2c(O)ccc(O)c2C(=O)c2c(NCCNCCO)ccc(NCCNCCO)c21 [mitoxantrone]
[1]
  crossing of the blood brain barrier (BBB) into the CNS: do not cross the blood brain barrier
MS; CNS lymphomas; in vivo
  efficacy against the progression of MS: some efficacy
  toxicity limiting use: limited lifetime use due to toxicity
